According to US9409983B2, “Methods and compositions involving PBEF inhibitors for lung inflammation conditions and diseases” (The Board of Trustess of the University of Illinois, priority 2009, dated 2016):
Entries after “also recorded” stand apart in the source; their conditions may differ.

Tests used:
[1] = system: C57BL/6 mice; experiment: rhPBEF challenge in limited ventilator-induced lung injury model (VILIa, 30 ml/kg); type: in vivo, mouse
Experimental: The first VILI model was designed to produce limited lung injury (VILIa, tidal volume 30 ml/kg), thus allowing assessment of potential synergy with rhPBEF challenge. Male C57BL/6J B6 mice were anesthetized with ketamine/acepromazine, intubated and administered rhPBEF (20 μg/mouse) via an intratracheal (IT) route ˜30 min before ventilator placement (room air, tidal volume 30 ml/kg, 65 breaths/minute, 0 cm H2O PEEP) for 4 hr as previously described (Nonas et al., 2007; Moitra et al., 2007). Groups included a spontaneous breathing group (SB), a spontaneous breathing group challenged with rhPBEF (SB-rhPBEF), a high tidal ventilation group (VILIa), and a high tidal ventilation group with rhPBEF challenge (VILIa-rhPBEF) (n=4-6 all groups).
BAL fluid recovered as we previously described was used for multiple assays including total BAL protein, and BAL cell differentials (Peng et al., 2004). Tissue albumin content was assessed as previously described (Nonas et al., 2007). Cytokine levels in BAL fluid (IL-1β, IL-6, KC, MIP2, TNF-α) were analyzed by multiplex assays (Bio-Rad, Hercules, Calif., USA). BAL PBEF levels were assayed by a C-terminal ELISA (Phoenix Pharmaceuticals Inc. Belmont, Calif.) and analyzed using the SoftmaxPRO software (Molecular Devices Corp). (See Supplemental Methods).
We utilized two experimental models of ventilator-induce lung injury in these experiments. Our first approach (VILIa) utilized a VILI protocol with a tidal volume of 30 ml/kg designed to produce limited lung injury in order to allow assessment of potential synergism between delivered PBEF and mechanical ventilation-induced lung injury. Male C57BL/6J mice (8-12 wk old, 24.7±2.0 g) were weighed, anesthetized with ketamine/acepromazine, intubated using a 20 gauge catheter (Medex, Inc, Carlsbad, Calif.) and administered recombinant PBEF (20 μg/mouse in 1.5 μl water per gram body weight or vehicle equal volumes of water) via an intratracheal (IT) route ˜30 min before being placed on mechanical ventilation as we have previously described (Peng et al., 2004). Mice were then connected to Harvard Apparatus ventilator (Boston, Mass.) at room air, tidal volume of 30 ml/kg, 65 breaths/minute, and positive expiratory pressure (PEEP) 0 cm H2O for 4 hr. Groups of mice were randomly allocated to either the spontaneous breathing group (SB) (n=4), the spontaneous breathing challenged with IT rhPBEF group (SB-rhPBEF) (n=6), the high tidal ventilation group (VILIa) (n=6), or high tidal ventilation with rhPBEF group (VILIa-rhPBEF) (n=6). Normal saline (0.2 cc) was given via intraperitoneal injection at the beginning and 2 hours later to all ventilated mice and peak inspiratory pressure was monitored continuously. Temperature was maintained with heat blanket to all mice during experiment.
Mice underwent bronchioalveolar lavage (BAL) of both lungs with Hank's balanced salt solution (1 mL/mouse), and the recovered BAL fluid was used for assays as we have previously described (Peng et al., 2004). Total protein was measured using the Bio-Rad DC Protein Assay (Bio-Rad Laboratories, Hercules, Calif.) (Peng et al., 2004). Protein results were expressed as mg/ml to allow for comparison to other studies. Lavage samples were centrifuged at 500×g on a refrigerated micro centrifuge for 20 min. The supernatant was decanted and aliquot for protein assays. The BAL cells were resuspended in Hank's balanced salt solution and counted using a hemacytometer using standard techniques.
Re-suspended BAL cells from lung lavage were centrifuged using a Shandon Cytospin-2 at 600 RPM for 15 min, fixed by air-drying, and stained with Diff-Quik dye for differential counts (Peng et al., 2004). Stained cell slides were evaluated and differentially counted for each individual animal (lymphocyte, neutrophil or a macrophage).
BAL fluid for cytokine measurements was stored at −80° C. until analysis. […]

[2] = system: rat peritoneal neutrophils; experiment: Transmigration and chemotaxis assay (Transwell); type: cell-based; details: rhPBEF (10 ng/ul) or casein in lower chamber, up to 4 hours
Experimental: Chemotaxis of rat peritoneal neutrophils (calcein-AM) across 3 μm polycarbonate filters was assessed in response to recombinant human PBEF/visfatin (rhPBEF, PeproTech, Rocky Hill, N.J.), or casein (positive control). (See Supplemental Methods for additional details).
Neutrophils were collected from retired breeder male Harlan-Sprague Dawley rats by intraperitoneal injection of 2.5% casein (5 ml). The resulting peritoneal fluid was recovered by PBS peritoneal lavage after 18 hr, centrifuged and examined for total cell counts and cell differentiation. For chemotaxis assays, leukocytes were exposed to calcein-AM in the presence of plurionic acid for 1 hr at room temperature. The temperature was then elevated to 37° C. for 30 min to cleave the calcein AM thereby reducing the rate of calcein diffusion out of the cells. […] The receiving wells were assessed serially in a fluorescent plate reader with absorption at 494 nm and emission measured at 517 nm. Fluorescence was recorded at 5, 10, 15, 30 min and each subsequent 30 min period for up to 4 hr. Aliquots of known numbers of neutrophils were counted in separate wells at each time point to account for any quenching of the fluorescence over time.

## rhPBEF: Recombinant human soluble PBEF/visfatin, a 52 kDa protein containing 465 amino acid residues, purchased from PeproTech
[1]
  BAL IL-1β: 53 ± 4 pg/mL
  BAL IL-6: 957 ± 103 pg/mL
  BAL KC: 2310 ± 263 pg/mL
  BAL MIP-2: 30480 ± 219 pg/mL
  BAL TNF-α: 985 ± 293 pg/mL
[1]; 20 μg rhPBEF
  BAL cytospin (400×): dramatic influx of neutrophils into the alveolar space
[1]; intratracheal rhPBEF 30 min prior to mechanical ventilation for 4 hr
  histologic assessment of lung tissue (hematoxylin and eosin): greater alveolar wall thickening, and neutrophil infiltration into the lung interstitium and alveolar space; also recorded: dramatically augmented
[2]
  PMN migration across Transwell filters: significant PMN migration beginning after 2 hrs; also recorded: significant PMN migration beginning at 2 hrs
